# Results published in patent publication US20240066155A1, “DUAL MODE RADIOTRACER AND -THERAPEUTICS” (priority 2021, published 2024).
# “And” between values parts separate entries of the source, which are not always exact repeats. Equal values may be shown once.
# Tests used:
# [1] = Lipophilicity, n-octanol/PBS (pH 7.4) distribution; format: physicochemical; details: n-octanol/PBS pH 7.4, 177Lu-labeled, n=6
# Method: Approximately 1 MBq of the ^177Lu-labeled PSMA ligand was dissolved in 1 mL of a 1:1 mixture (v/v) of phosphate-buffered saline (PBS, pH 7.4) and n-octanol (n=6). After vigorous mixing of the suspension for 3 min, the vial was centrifuged at 15000×g for 3 min and 100 μL aliquots of both layers were measured in a γ-counter. Finally, the ratio of the radioactivity detected in the n-octanol sample and the PBS buffer was calculated and expressed as distribution ratio log D7.4.
# [2] = test system: LNCaP tumor-bearing male CB-17 SCID mice; assay: Ex vivo biodistribution in LNCaP tumor-bearing CB-17 SCID mice; details: 24 h p.i.
# Method: All animal experiments were conducted in accordance with general animal welfare regulations in Germany (German animal protection act, as amended on 18 May 2018, Art. 141 G v. 29 Mar. 2017 I 626, approval no. 55.2-1-54-2532-71-13) and the institutional guidelines for the care and use of animals. LNCaP tumor xenografts were established in 6-8 weeks old male CB-17 SCID mice as described previously (Wurzer A, et al. J Nucl Med. 2020; 61: 735-742). Biodistribution Studies. The ^177Ludabeled PSMA inhibitors (2-5 MBq; 0.1 nmol) were injected under isoflurane anesthesia into the tail vein of LNCaP tumor-bearing male CB-17 SCID mice that were sacrificed 24 h post injection (p.i.) (n=4-5). Selected organs were removed, weighed, and measured in a counter. All rhPSMA ligands were evaluated in mice during the same time period (Q1/2020), whereas ^177Ludabeled PSMA-617 and PSMA I&T (Wirtz M, et al. EJNMMI Res. 2018; 8: 84) were assessed previously using the identical cell line, mouse model and experimental procedure.
# human serum albumin = biological target: T1, human serum albumin (Homo sapiens, UniProt P02768); assay: Binding to human serum albumin by albumin mediated size exclusion chromatography (AMSEC); format: in vitro ADME; details: size exclusion chromatography with HSA in the mobile phase, 177Lu-labeled
# T1 construct: purchased Biowest, Nuaillé, France
# T1 sequence (P02768 25-609): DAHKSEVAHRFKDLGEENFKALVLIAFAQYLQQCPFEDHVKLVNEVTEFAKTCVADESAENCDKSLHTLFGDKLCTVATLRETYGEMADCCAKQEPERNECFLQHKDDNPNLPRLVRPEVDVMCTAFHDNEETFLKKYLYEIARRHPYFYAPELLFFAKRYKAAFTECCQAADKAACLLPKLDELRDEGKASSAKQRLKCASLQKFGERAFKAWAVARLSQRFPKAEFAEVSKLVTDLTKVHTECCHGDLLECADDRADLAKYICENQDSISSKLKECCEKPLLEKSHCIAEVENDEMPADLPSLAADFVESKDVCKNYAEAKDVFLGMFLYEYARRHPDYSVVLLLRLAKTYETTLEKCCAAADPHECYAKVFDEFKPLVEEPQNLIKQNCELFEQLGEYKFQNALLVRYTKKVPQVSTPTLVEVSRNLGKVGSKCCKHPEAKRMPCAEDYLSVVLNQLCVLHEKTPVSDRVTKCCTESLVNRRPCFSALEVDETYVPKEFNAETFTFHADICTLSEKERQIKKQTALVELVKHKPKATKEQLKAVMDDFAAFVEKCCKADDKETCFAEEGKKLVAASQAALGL
# Method: Binding of ^177Lu-labeled ligands to HSA was assessed by albumin mediated size exclusion chromatography (AMSEC). A gel filtration size exclusion column (Superdex 75 Increase 10/300 GL, GE Healthcare, Uppsala, Sweden) was used with HSA buffer at physiological concentration (700 μM, Biowest, Nuaillé, France) as mobile phase (constant flow rate of 0.8 mL/min at room temperature). For calibration purposes, a commercially available set of proteins (GE Healthcare, Buckinghamshire, UK) was used. Under these chromatographic conditions, the retention time of a radioligand (1.0 MBq, 10-20 GBq/μmol) depends on the extent of HSA/ligand interactions and thus, by means of the calibration with the aforementioned set of proteins, can be translated into an AMW (expressed in kDa) as a parameter allowing to quantify the extent of HSA binding. The detection window ranges between 2.3 kDa ([^18F]Fluoride; no HSA interaction) and 70.2 kDa (experimental molecular weight of HSA; maximum HSA interaction).
# LNCaP cells = assay: PSMA-mediated internalization into LNCaP cells; format: cell-based; details: 1 h, 37° C., percentage of reference ligand ([125I]BA)KuE, n=3
# Method: (§1) Competitive binding studies were determined on LNCaP cells (1.5×10^5 cells in 1 mL/well) after incubation at 4° C. for 1 h, using (((S)-1-carboxy-5-(4-([^125I]iodo)benzamido)pentyl)carbamoyl)-L-glutamic acid ([^125I]BA)KuE; 0.2 nM/well) as reference radioligand (n=3). Internalization studies of the radiolabeled ligands (1.0 nM/well) were performed on LNCaP cells (1.25×10^5 cells in 1 mL/well) at 37° C. for 1 h and accompanied by ([^125I]BA)KuE (0.2 nM/well), as reference. Data were corrected for non-specific binding and normalized to the specific internalization observed for the reference (n=3). A detailed description of the experimental procedures was previously published (Wurzer A, et al. J Nucl Med. 2020; 61: 735-742).
# PSMA = biological target: T2, PSMA (Homo sapiens, UniProt Q04609); assay: Competitive binding studies on LNCaP cells vs ([125I]BA)KuE (affinity, IC50); details: 1 h, 4° C., natLu complexes, n=3
# T2 construct: endogenous in cells; host or cells: LNCaP cells
# T2 sequence (Q04609 whole entry): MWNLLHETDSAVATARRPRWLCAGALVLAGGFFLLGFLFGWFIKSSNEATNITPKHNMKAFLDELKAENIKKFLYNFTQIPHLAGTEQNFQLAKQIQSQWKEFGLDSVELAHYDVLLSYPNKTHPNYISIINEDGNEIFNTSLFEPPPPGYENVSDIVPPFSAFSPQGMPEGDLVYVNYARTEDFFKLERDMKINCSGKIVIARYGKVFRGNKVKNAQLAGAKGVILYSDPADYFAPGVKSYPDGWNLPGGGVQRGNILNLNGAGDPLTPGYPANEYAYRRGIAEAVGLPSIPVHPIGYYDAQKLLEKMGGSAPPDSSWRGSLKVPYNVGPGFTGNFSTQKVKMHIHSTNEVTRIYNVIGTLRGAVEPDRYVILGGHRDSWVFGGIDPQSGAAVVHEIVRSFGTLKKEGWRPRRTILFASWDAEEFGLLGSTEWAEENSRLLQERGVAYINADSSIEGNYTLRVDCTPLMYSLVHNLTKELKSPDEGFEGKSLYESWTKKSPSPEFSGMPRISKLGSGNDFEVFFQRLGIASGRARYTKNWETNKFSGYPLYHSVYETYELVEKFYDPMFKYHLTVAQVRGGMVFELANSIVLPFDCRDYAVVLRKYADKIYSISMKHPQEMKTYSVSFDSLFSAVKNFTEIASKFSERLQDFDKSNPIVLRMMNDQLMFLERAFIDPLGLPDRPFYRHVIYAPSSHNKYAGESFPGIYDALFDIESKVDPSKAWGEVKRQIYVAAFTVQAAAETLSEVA
# Method: as §1
# [3] = literature, Wängler et al. Bioconjug Chem 2010; cited from earlier work
compound,measurement,setting,value
"CC(C)(C)[Si](F)(c1ccc(C(=O)NC[C@@H](NC(=O)CC[C@@H](C(=O)O)N2CCN(CC(=O)[O-])CCN(CC(=O)[O-])CCN(CC(=O)[O-])CC2)C(=O)N[C@H](CCCCNC(=O)CCC(=O)NCCC[C@@H](NC(=O)CC[C@H](NC(=O)N[C@@H](CCC(=O)O)C(=O)O)C(=O)O)C(=O)O)C(=O)O)cc1)C(C)(C)C.[Lu+3] [[^177Lu, ^19F]rhPSMA-7.3]",logD7.4,[1],−4.12 ± 0.11
same,Tumor-to-organ ratio adrenals,"[2]; n=5, mean of ratios per mouse",44.34
same,Tumor-to-organ ratio blood,"[2]; n=5, mean of ratios per mouse",4255
same,Tumor-to-organ ratio bone,"[2]; n=5, mean of ratios per mouse",625.98
same,Tumor-to-organ ratio heart,"[2]; n=5, mean of ratios per mouse",542.49
same,Tumor-to-organ ratio intestine,"[2]; n=5, mean of ratios per mouse",254.02
same,Tumor-to-organ ratio kidney,"[2]; n=5, mean of ratios per mouse",1.64
same,Tumor-to-organ ratio liver,"[2]; n=5, mean of ratios per mouse",78.11
same,Tumor-to-organ ratio lung,"[2]; n=5, mean of ratios per mouse",239.97
same,Tumor-to-organ ratio muscle,"[2]; n=5, mean of ratios per mouse",2123.58
same,Tumor-to-organ ratio pancreas,"[2]; n=5, mean of ratios per mouse",754.34
same,Tumor-to-organ ratio parotid gl.,"[2]; n=5, mean of ratios per mouse",176.66
same,Tumor-to-organ ratio spleen,"[2]; n=5, mean of ratios per mouse",34.32
same,Tumor-to-organ ratio stomach,"[2]; n=5, mean of ratios per mouse",453.70
same,Tumor-to-organ ratio submand. gl.,"[2]; n=5, mean of ratios per mouse",290.08
same,Tumor-to-organ ratio blood,"[2]; n=5, mean of ratios per mouse, listed as [^177Lu]rhPSMA-7.3",4255.56
same,Activity accumulation adrenals,"[2]; n=5, mean, complete dataset",0.4233 % ID/g
same,Activity accumulation blood,"[2]; n=5, mean, complete dataset",0.0046 % ID/g
same,Activity accumulation bone,"[2]; n=5, mean, complete dataset",0.0307 % ID/g
same,Activity accumulation heart,"[2]; n=5, mean, complete dataset",0.0333 % ID/g
same,Activity accumulation intestine,"[2]; n=5, mean, complete dataset",0.1001 % ID/g
same,Activity accumulation kidney,"[2]; n=5, mean, complete dataset",11.4±1.4 % ID/g
same,Activity accumulation liver,"[2]; n=5, mean, complete dataset",0.2352 % ID/g
same,Activity accumulation lung,"[2]; n=5, mean, complete dataset",0.0768 % ID/g
same,Activity accumulation muscle,"[2]; n=5, mean, complete dataset",0.0094 % ID/g
same,Activity accumulation pancreas,"[2]; n=5, mean, complete dataset",0.0241 % ID/g
same,Activity accumulation parotid gl.,"[2]; n=5, mean, complete dataset",0.1068 % ID/g
same,Activity accumulation spleen,"[2]; n=5, mean, complete dataset",0.5817 % ID/g
same,Activity accumulation stomach,"[2]; n=5, mean, complete dataset",0.0434 % ID/g
same,Activity accumulation submand. gl.,"[2]; n=5, mean, complete dataset",0.0644 % ID/g
same,Activity accumulation tumor,"[2]; n=5, mean, complete dataset, LNCaP tumor",18.1740 % ID/g
same,Activity accumulation kidney,"[2]; n=5, mean, complete dataset, listed as [^177Lu]rhPSMA-7.3",11.3738 % ID/g
same,"MWapp [kDa] (apparent molecular weight, AMW; HSA binding)",human serum albumin,30.4 kDa
same,Internalization [% IBA-KuE],LNCaP cells,184.4 ± 11.8 % IBA-KuE
same,IC50,PSMA,3.29 ± 1 nM
SIFA-Asn(AcNH-β-Glc)-PEG-Tyr^3-octreotate,log P(ow),[3],0.96
"CC(C)(C)[Si](F)(c1ccc(C(=O)NC[C@H](NC(=O)CN2CCN(CC(=O)[O-])CCN(CC(=O)[O-])CCN(CC(=O)[O-])CC2)C(=O)N[C@H](CCCCNC(=O)CCC(=O)NCCC[C@@H](NC(=O)CC[C@H](NC(=O)N[C@@H](CCC(=O)O)C(=O)O)C(=O)O)C(=O)O)C(=O)O)cc1)C(C)(C)C.[Lu+3] [[^177Lu, ^19F]rhPSMA-10.2]",logD7.4,[1],−3.8 and −3.83 ± 0.10
same,Tumor uptake,[2]; LNCaP tumor,10.5±3.3 % ID/g
same,"MWapp [kDa] (apparent molecular weight, AMW; HSA binding)",human serum albumin,21.8 kDa
same,Internalization [% IBA-KuE],LNCaP cells,205.6 ± 8.3 % IBA-KuE
same,IC50,PSMA,3.61 ± 0.59 nM
SIFA-Asn(AcNH-β-Glc)-Tyr^3-octreotate,log P(ow),[3],1.23
